Source: patent US9884825B2, “Curcumin analogs and methods of making and using thereof” (Georgia State University Research Foundation, Inc., priority 2012, dated 2018)
Read-outs that look alike come from different tables or passages of the source.

Tests used:
[1] = system: human embryonic kidney 293 cells (Hek); experiment: MTT cytotoxicity assay, Hek cells; assay type: cell-based; conditions: Hek 293 cells, 48 h incubation
Method: (§1) Two cell human cancer cell lines were used in this study: human cervical cancer cells (HeLa) and human embryonic kidney 293 cells (Hek). The cell lines were obtained from ATCC (Rockville, Md., USA). Cell lines were cultured at 37° C. and 5% CO2 in DMEM medium with 10% fetal bovine serum (FBS) and 1% penicillin/streptomycin (all obtained from GibcoBRL, Grand Island, N.Y.). Cells were passaged three times weekly by trypsinisation with 0.25% trypsin/0.02% EDTA solution (Sigma) into 75 cm^2 tissue culture flasks (Nunc, Denamark).
(§2) Both human cervical cancer cells (HeLa) and human embryonic kidney 293 cells (Hek) cell lines were seeded into 96-well plate (2.5×10^4 in 100 μL per well). Testing compounds were dissolved or suspended in DMSO to make 10 mM stock solutions. Addition of compounds was performed after adherent cells reached 40-50% confluence. After incubation for 48 h at 37° C. in humidified atmosphere with 5% CO2, 10 μL of MTT (5 mg/mL in PBS) was added to each well and incubated for another 4 h. The culture medium was then aspirated and 100 μL of DMSO was added to each well. Optical densities at 490 nm were measured by microplate reader (PERKINELMER VICTOR 3V model 1420). All tests were performed in triplicates. Doxorubicin was used as a positive control and the same amount DMSO without compound was used as negative control. IC50 values were obtained from the curve fitting by using Sigma plot10.

[2] = system: human cervical cancer cells (HeLa); experiment: MTT cytotoxicity assay, HeLa cells; assay type: cell-based; conditions: for IC50: Homo sapiens; for cytotoxicity against HeLa cells, in words: screening at 50 μM, 20 μM and 2 μM (FIGS. 1-2)
Method: as §1, §2

KB cell = experiment: Cytotoxicity against KB cell line; assay type: cell-based; conditions: Homo sapiens, mean ± spread, unit inferred, read-out: IC50 KB cell (Table 6)
PC3 cell = experiment: Cytotoxicity against PC3 cell line; assay type: cell-based; conditions: Homo sapiens, PC-3, mean ± spread, unit inferred, read-out: IC50 PC3 cell (Table 6)
DU145 cell = experiment: Cytotoxicity against DU145 cell line; assay type: cell-based; conditions: Homo sapiens, DU-145, mean ± spread, unit inferred, read-out: IC50 DU145 cell (Table 6)
Molt4 cell = experiment: Cytotoxicity against MOLT4 cell line; assay type: cell-based; conditions: Homo sapiens, MOLT-4; Table 3, SM compounds
[3] = HeLa cells, MTT assay, 48 h incubation, read-out: IC50 (μM) Hela
[4] = HeLa cells, MTT assay, range or bound stated in text, read-out: IC50 against HeLa cancer cell lines
[5] = HeLa cell, mean ± spread, unit inferred, read-out: IC50 HeLa cell (Table 6)
[6] = HeLa, Table 3, SM compounds, read-out: IC50 (μM) against Hela cell

Compound	melting point	IC50 (KB cell)	IC50 [2, 5]	IC50 (PC3 cell)	IC50 (DU145 cell)	other results
Cc1ccc(S(=O)(=O)N2C/C(=C\c3ccc(Br)cc3)C(=O)/C(=C/c3ccc(Br)cc3)C2)cc1 [3a, 3,5-Bis(4-bromobenzylidene)-1-tosylpiperidin-4-one]	214 °C					IC50 [1]: 1.39 µM; IC50 ([1]; Homo sapiens, HEK293, 48 h): 1.24 to 3.54 µM; IC50 [2, 3]: 0.28 µM; IC50 [2, 4]: 0.3 to 1.5 µM; cytotoxicity against HeLa cells, in words ([2]; MTT assay): very good activity
Cc1ccc(S(=O)(=O)N2C/C(=C\c3ccc(F)cc3)C(=O)/C(=C/c3ccc(F)cc3)C2)cc1 [3j, 3,5-Bis(4-fluorobenzylidene)-1-tosylpiperidin-4-one]	204 °C					IC50 [1]: 1.24 µM; IC50 ([1]; Homo sapiens, HEK293, 48 h): 1.24 to 3.54 µM; IC50 [2, 3]: 0.61 µM; IC50 [2, 4]: 0.3 to 1.5 µM
O=C1/C(=C/c2ccc(Cl)cc2)CN(S(=O)(=O)c2ccccc2)C/C1=C\c1ccc(Cl)cc1 [4e, 3,5-Bis(4-chlorobenzylidene)-1-(phenylsulfonyl)piperidin-4-one]	237 °C					IC50 [1]: 1.97 µM; IC50 ([1]; Homo sapiens, HEK293, 48 h): 1.24 to 3.54 µM; IC50 [2, 3]: 0.85 µM; IC50 [2, 4]: 0.3 to 1.5 µM; cytotoxicity against HeLa cells, in words ([2]; MTT assay): very good activity
O=C1/C(=C/c2ccc(Br)cc2)CN(S(=O)(=O)c2ccccc2)C/C1=C\c1ccc(Br)cc1 [4i, 3,5-Bis(4-bromobenzylidene)-1-(phenylsulfonyl)piperidin-4-one]	247 °C					IC50 [2, 3]: 1.44 µM; IC50 [2, 4]: 0.3 to 1.5 µM
CCN1C/C(=C\c2ccc(C(C)C)cc2)C(=O)/C(=C/c2ccc(C(C)C)cc2)C1 [6g, 1-Ethyl-3,5-bis(4-isopropylbenzylidene)piperidin-4-one]						IC50 [1]: 1.78 µM; IC50 ([1]; Homo sapiens, HEK293, 48 h): 1.24 to 3.54 µM; IC50 [2, 3]: 0.86 µM; IC50 [2, 4]: < 1 µM; cytotoxicity against HeLa cells, in words ([2]; MTT assay): very good activity
CCCCn1cc(CN2CC(=Cc3ccc(CC)cc3)C(=O)C(=Cc3ccc(CC)cc3)C2)nn1 [12b, 1-((1-Butyl-1H-1,2,3-triazol-4-yl)methyl)-3,5-bis(4-ethylbenzylidene)piperidin-4-one]	150 °C					
CCCCCn1cc(CN2CC(=Cc3ccc(CC)cc3)C(=O)C(=Cc3ccc(CC)cc3)C2)nn1 [12c, 3,5-Bis(4-ethylbenzylidene)-1-((1-pentyl-1H-1,2,3-triazol-4-yl)methyl)piperidin-4-one]	156 °C					
CCCn1cc(CN2CC(=Cc3ccc(C(C)C)cc3)C(=O)C(=Cc3ccc(C(C)C)cc3)C2)nn1 [13a, 3,5-Bis(4-isopropylbenzylidene)-1-((1-propyl-1H-1,2,3-triazol-4-yl)methyl)piperidin-4-one]	144 °C					
CCCCn1cc(CN2CC(=Cc3ccc(C(C)C)cc3)C(=O)C(=Cc3ccc(C(C)C)cc3)C2)nn1 [13b, 1-((1-Butyl-1H-1,2,3-triazol-4-yl)methyl)-3,5-bis(4-isopropylbenzylidene)piperidin-4-one]	145 °C					
CCCCCn1cc(CN2CC(=Cc3ccc(C(C)C)cc3)C(=O)C(=Cc3ccc(C(C)C)cc3)C2)nn1 [13c, 3,5-Bis(4-isopropylbenzylidene)-1-((1-pentyl-1H-1,2,3-triazol-4-yl)methyl)piperidin-4-one]	143 °C					
CCCn1cc(CN2CC(=Cc3ccc(C(C)(C)C)cc3)C(=O)C(=Cc3ccc(C(C)(C)C)cc3)C2)nn1 [14a, 3,5-Bis(4-tert-butylbenzylidene)-1-((1-propyl-1H-1,2,3-triazol-4-yl)methyl)piperidin-4-one]	182 °C					
CCCCn1cc(CN2CC(=Cc3ccc(C(C)(C)C)cc3)C(=O)C(=Cc3ccc(C(C)(C)C)cc3)C2)nn1 [14b, 1-[(1-Butyl-1H-1,2,3-triazol-4-yl)methyl]-3,5-bis(4-tert-butylbenzylidene)piperidin-4-one]	145 °C					
CCCCCn1cc(CN2CC(=Cc3ccc(C(C)(C)C)cc3)C(=O)C(=Cc3ccc(C(C)(C)C)cc3)C2)nn1 [14c, 3,5-Bis(4-tert-butylbenzylidene)-1-[(1-pentyl-1H-1,2,3-triazol-4-yl)methyl]piperidin-4-one]	146 °C					
CCCc1ccc(C=C2CN(Cc3cn(CCC)nn3)CC(=Cc3ccc(CCC)cc3)C2=O)cc1 [15a, 1-[(1-Propyl-1H-1,2,3-triazol-4-yl)methyl]-3,5-bis(4-propylbenzylidene)piperidin-4-one]	133 °C					
CCCCCn1cc(CN2CC(=Cc3ccc(CCC)cc3)C(=O)C(=Cc3ccc(CCC)cc3)C2)nn1 [15c, 1-[(1-Pentyl-1H-1,2,3-triazol-4-yl)methyl]-3,5-bis(4-propylbenzylidene)piperidin-4-one]	134 °C					
CCCCc1ccc(C=C2CN(Cc3cn(CCC)nn3)CC(=Cc3ccc(CCCC)cc3)C2=O)cc1 [16a, 3,5-Bis(4-butylbenzylidene)-1-[(1-propyl-1H-1,2,3-triazol-4-yl)methyl]piperidin-4-one]	127 °C					

Compound	melting point	IC50 (KB cell)	IC50 [2, 5]	IC50 (PC3 cell)	IC50 (DU145 cell)	other results
CCCCc1ccc(C=C2CN(Cc3cn(CCCC)nn3)CC(=Cc3ccc(CCCC)cc3)C2=O)cc1 [16b, 1-[(1-Butyl-1H-1,2,3-triazol-4-yl)methyl]-3,5-bis(4-butylbenzylidene)piperidin-4-one]	136 °C					
CCCCCn1cc(CN2CC(=Cc3ccc(CCCC)cc3)C(=O)C(=Cc3ccc(CCCC)cc3)C2)nn1 [16c, 3,5-Bis(4-butylbenzylidene)-1-[(1-pentyl-1H-1,2,3-triazol-4-yl)methyl]piperidin-4-one]	145 °C					
COc1cccc2c1C(=O)c1c(O)c3c(c(O)c1C2=O)C[C@@](O)(C(=O)CO)C[C@@H]3O[C@H]1C[C@H](N)[C@H](O)[C@H](C)O1 [Doxorubicin, reference compound]		400 ± 110 nM	0.96 ± 0.27 µM	230 ± 10 nM	470 ± 250 nM	IC50 ([1]; Homo sapiens, HEK293, 48 h): 0.95 µM; IC50 [2, 3]: 2.89 µM
COc1cc(/C=C2\CC/C(=C\c3ccc(OCCBr)c(OC)c3)C2=O)ccc1OCCBr [SM216]						IC50 (Molt4 cell): > 50 µM; IC50 [2, 6]: > 2.5 µM
COc1cc(/C=C2\CC/C(=C\c3ccc(OCCN4CCOCC4)c(OC)c3)C2=O)ccc1OCCN1CCOCC1 [SM218]						IC50 (Molt4 cell): > 2.5 µM; IC50 [2, 6]: > 2.5 µM
CCc1ccc(/C=C2\CN(Cc3cn(CCNc4ccnc5cc(Cl)ccc45)nn3)C/C(=C\c3ccc(CC)cc3)C2=O)cc1 [SR13]		3700 ± 210 nM	5.3 ± 2.8 µM	3700 ± 2100 nM	6500 ± 3000 nM	
O=C1/C(=C/c2ccc(Br)cc2)CN(Cc2cn(CCNc3ccnc4cc(Cl)ccc34)nn2)C/C1=C\c1ccc(Br)cc1 [SR14]		1200 ± 320 nM	2.7 ± 1.3 µM	1500 ± 240 nM	6600 ± 4600 nM	
O=C1/C(=C/c2ccc(Cl)cc2)CN(Cc2cn(CCNc3ccnc4cc(Cl)ccc34)nn2)C/C1=C\c1ccc(Cl)cc1 [SR15]		3000 ± 310 nM	2.1 ± 0.35 µM	3100 ± 1800 nM	3100 ± 1300 nM	
O=C1/C(=C/c2ccc(F)cc2)CN(Cc2cn(CCNc3ccnc4cc(Cl)ccc34)nn2)C/C1=C\c1ccc(F)cc1 [SR16]		2600 ± 410 nM	2.2 ± 0.93 µM	2000 ± 50 nM	3700 ± 2400 nM	
O=C1/C(=C/c2cccc(Br)c2)CN(Cc2cn(CCNc3ccnc4cc(Cl)ccc34)nn2)C/C1=C\c1cccc(Br)c1 [SR17]		4300 ± 2400 nM	2.5 ± 1.2 µM	2800 ± 800 nM	9600 ± 7300 nM	
Cc1ccc(/C=C2\CN(Cc3cn(CCCNc4ccnc5cc(Cl)ccc45)nn3)C/C(=C\c3ccc(C)cc3)C2=O)cc1 [SR34]		4700 ± 1100 nM	2.8 ± 0.93 µM	2700 ± 800 nM	4000 ± 490 nM	
O=C1/C(=C/c2ccc(Br)cc2)CN(Cc2cn(CCCNc3ccnc4cc(Cl)ccc34)nn2)C/C1=C\c1ccc(Br)cc1 [SR36]		1500 ± 300 nM	2 ± 1.2 µM	1700 ± 240 nM	1900 ± 590 nM	
COc1ccc(/C=C2\CN(Cc3cn(CCCNc4ccnc5cc(Cl)ccc45)nn3)C/C(=C\c3ccc(OC)cc3)C2=O)cc1 [SR37]		4700 ± 870 nM	5 ± 2.2 µM	11000 ± 2700 nM	6700 ± 1900 nM	
COc1ccc(/C=C2\CN(Cc3cn(CCCNc4ccnc5cc(Cl)ccc45)nn3)C/C(=C\c3ccc(OC)c(OC)c3)C2=O)cc1OC [SR38]		2100 ± 50 nM	2.5 ± 1.3 µM	2600 ± 400 nM	6700 ± 4400 nM	
O=C1/C(=C/c2ccc(F)cc2)CN(Cc2cn(CCCNc3ccnc4cc(Cl)ccc34)nn2)C/C1=C\c1ccc(F)cc1 [SR39]		2600 ± 690 nM	2.6 ± 1.4 µM	3000 ± 750 nM	5300 ± 2800 nM	
O=C1/C(=C/c2ccc(Cl)cc2)CN(Cc2cn(CCCNc3ccnc4cc(Cl)ccc34)nn2)C/C1=C\c1ccc(Cl)cc1 [SR40]		1800 ± 290 nM	1.8 ± 0.65 µM	1800 ± 680 nM	1900 ± 620 nM	
